pIC50: −log10 of the molar value.
How the values were obtained:
Rattus norvegicus = organism: Rattus norvegicus; assay: Minimal effective dose in an rat anti-immobility effect using behavioral despair test; assay type: functional; conditions: read-out: MED
Adenosine receptor A1 = target: T1, Adenosine receptor A1 (Rattus norvegicus, UniProt P25099); assay: Binding affinity towards the adenosine A1 receptor in cerebral cortices of Sprague-Dawley male rats using [3H]CHA as radioligand.
T1 sequence (P25099 whole entry): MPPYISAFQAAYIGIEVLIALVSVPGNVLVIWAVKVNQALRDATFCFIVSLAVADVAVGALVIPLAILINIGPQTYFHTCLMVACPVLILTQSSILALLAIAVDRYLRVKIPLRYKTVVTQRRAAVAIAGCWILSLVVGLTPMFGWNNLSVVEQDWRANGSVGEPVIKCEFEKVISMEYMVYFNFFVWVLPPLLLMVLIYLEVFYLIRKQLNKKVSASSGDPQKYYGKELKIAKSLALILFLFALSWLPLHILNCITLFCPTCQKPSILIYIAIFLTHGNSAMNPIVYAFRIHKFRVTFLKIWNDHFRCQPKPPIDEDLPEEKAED

Adenosine A2 receptor = Adenosine A2 receptor (Rattus norvegicus, UniProt P29276+P30543)

| SMILES | minimal effective dose (Rattus norvegicus) | pIC50 (Adenosine receptor A1) | IC50 (Adenosine A2 receptor) |
| --- | --- | --- | --- |
| Cc1nnc2c(NC(C)C)nc3ccc(Cl)cc3n12 | 3.2 mg/kg | 7.00 | – |
| CCNc1nc2cc(F)ccc2n2c(CC)nnc12 | ≤ 32 mg/kg | – | – |
| CC(=O)Nc1nc2ccc(F)cc2n2cnnc12 | ≤ 32 mg/kg | – | – |
| CN(C)c1nc2ccc(F)cc2n2cnnc12 | ≤ 32 mg/kg | – | – |
| Cc1nnc2c(N)nc3ccc(Cl)cc3n12 | ≤ 32 mg/kg | 6.46 | – |
| CCNc1nc2ccc(Cl)cc2n2c(-c3ccccc3)nnc12 | > 32 mg/kg | – | – |
| CCN(CC)c1nc2ccc(Cl)cc2n2c(C)nnc12 | ≤ 32 mg/kg | 4.77 | – |
| CCNc1nc2ccc(Cl)cc2n2c(CC)nnc12 | 3.2 mg/kg | – | – |
| CC(C)Nc1nc2cc(Cl)c(Cl)cc2n2cnnc12 | 3.2 mg/kg | 6.00 | – |
| CC(=O)N(C(C)=O)c1nc2ccccc2n2cnnc12 | ≤ 32 mg/kg | – | – |
| CCc1nnc2c(NC(C)=O)nc3ccccc3n12 | 1 mg/kg | – | – |
| CCc1nnc2c(N(CC)CC)nc3cc(F)c(F)cc3n12 | 3.2 mg/kg | – | – |
| CCc1nnc2c(NC(C)=O)nc3ccc(F)cc3n12 | ≤ 3.2 mg/kg | – | – |
| CCN(CC)c1nc2ccc(Cl)cc2n2c(-c3ccccc3)nnc12 | > 32 mg/kg | – | – |
| c1ccc2c(c1)nc(N1CCCC1)c1nncn12 | > 32 mg/kg | 4.30 | – |
| CCc1nnc2c(N3CCCC3=O)nc3ccccc3n12 | > 32 mg/kg | – | – |
| CCc1nnc2c(NC)nc3ccccc3n12 | 3.2 mg/kg | 5.22 | – |
| CCc1nnc2c(NC(C)=O)nc3cc(Cl)c(Cl)cc3n12 | ≤ 3.2 mg/kg | 5.89 | – |
| CCc1nnc2c(NC(C)=O)nc3ccc(Cl)cc3n12 | 1 mg/kg | 5.74 | – |
| CCc1nnc2c(N(CC)CC)nc3ccc(Cl)cc3n12 | ≤ 32 mg/kg | 5.19 | – |
| CCCC(=O)Nc1nc2ccc(Cl)cc2n2c(CC)nnc12 | ≤ 32 mg/kg | – | – |
| Nc1nc2cc(Cl)ccc2n2cnnc12 | ≤ 32 mg/kg | 5.92 | 0.21 µM |
| CCc1nnc2c(N(CC)CC)nc3ccc(F)cc3n12 | 10 mg/kg | – | – |
| CCc1nnc2c(NCCO)nc3ccccc3n12 | ≤ 32 mg/kg | 5.80 | – |
| Oc1cccc(C2=CSC3=Nc4ccccc4CN23)c1 | – | 4.74 | 0.53 µM |

| SMILES | minimal effective dose (Rattus norvegicus) | pIC50 (Adenosine receptor A1) | IC50 (Adenosine A2 receptor) |
| --- | --- | --- | --- |
| CCc1nnc2c(N(C(C)=O)C(C)C)nc3ccc(Cl)cc3n12 | 10 mg/kg | – | – |
| COc1ccc2c(c1)nc(NC(C)=O)c1nncn12 | ≤ 32 mg/kg | – | – |
| CCNc1nc2ccccc2n2c(C(F)(F)F)nnc12 | 32 mg/kg | – | – |
| CCc1nnc2c(N(CC)CC)nc3cc(Cl)c(Cl)cc3n12 | 3.2 mg/kg | 4.00 | – |
| CN(C)c1nc2ccccc2n2cnnc12 | ≤ 32 mg/kg | 4.23 | – |
| Nc1nc2ccccc2n2cnnc12 | 3.2 mg/kg | 5.34 | 0.4 µM |
| CCc1nnc2c(NC(C)C)nc3ccc(F)cc3n12 | 3.2 mg/kg | 6.74 | 3.9 µM |
| CCN(CC)c1nc2ccc(OC)cc2n2cnnc12 | > 32 mg/kg | – | – |
| CNc1nc2ccccc2n2cnnc12 | 32 mg/kg | 4.00 | – |
| CCN(CC)c1nc2cc(Cl)ccc2n2cnnc12 | 32 mg/kg | – | – |
| CCc1nnc2c(N)nc3cc(Cl)ccc3n12 | ≤ 3.2 mg/kg | 7.12 | 0.029 µM |
| CCN(CC)c1nc2cc(F)c(F)cc2n2cnnc12 | 3.2 mg/kg | 5.30 | – |
| c1ccc2c(c1)nc(N1CCOCC1)c1nncn12 | > 32 mg/kg | – | – |
| COc1nnc2c(NC(C)C)nc3ccc(Cl)cc3n12 | ≤ 32 mg/kg | – | – |
| Nc1nc2ccc(F)cc2n2c(O)nnc12 | 10 mg/kg | 6.08 | 0.7 µM |
| Nc1nc2ccc(Cl)cc2n2cnnc12 | 10 mg/kg | 5.47 | >= 1 uM |
| CCc1nnc2c(NC3CCCCC3)nc3ccc(Cl)cc3n12 | > 32 mg/kg | 7.36 | 4.1 µM |
| Nc1nc2cc(Cl)c(Cl)cc2n2cnnc12 | > 32 mg/kg | – | – |
| CC(=O)Nc1nc2ccc(F)cc2n2c(C(F)(F)F)nnc12 | ≤ 3.2 mg/kg | 5.44 | – |
| Nc1nc2cc(F)ccc2n2cnnc12 | ≤ 32 mg/kg | 5.21 | 0.56 µM |
| CC(CO)Nc1nc2ccc(F)cc2n2cnnc12 (stereo not given) | > 32 mg/kg | – | – |
| CCNc1nc2ccc(OC)cc2n2c(CC)nnc12 | > 32 mg/kg | 6.15 | 4.5 µM |
| CC(N)Cc1ccccc1.O=S(=O)(O)O (stereo not given) [AMPHETAMINE SULFATE] | < 1 mg/kg | – | – |
| Nc1nc2ccc(Cl)cc2c2nc(-c3ccco3)nn12 [CGS-15943] | < 32 mg/kg | – | 0.0028 µM |
| CN(C)CCCN1c2ccccc2CCc2ccccc21 [IMIPRAMINE] | > 17.8 mg/kg | – | – |

— ChEMBL document CHEMBL1124880 (J Med Chem, 1990)
